Results from patent publication US20240280562A1, “METHOD FOR QUANTIFYING ODORS, CELLS USED IN SAME, AND METHOD FOR PRODUCING SAID CELLS” (KOMI HAKKO CORPORATION, priority 2017, published 2024).

Key:
Olfr1258 = Olfr1258 (Mus musculus, UniProt Q8VGN6); assay: Reconstruction experiment: cAMP-responsive luciferase in HEK293 cells expressing Olfr1258; format: cell-based
[1] = tested on: olfactory sensory neurons; assay: OneCell system Fluo-4 screening of olfactory epithelium-derived cells stimulated by an odor molecule; format: cell-based, mouse; settings: 2-pentanone (30 mM) for 10 seconds and (3 mM) for 10 seconds; of approximately 10000 olfactory sensory neurons
Protocol: C57/BL6J (male) aged 3 to 5 weeks were purchased from Japan SLC, Inc. The mice were beheaded after intravenous anesthesia with […] of Urethane solution (300 mg/mL; U2500, Sigma-Aldrich) and olfactory epithelium was extracted on ice. […] An equal amount of Ca^2+ ringer solution containing 0.1 mg/mL DNase I, 0.1 mg/mL BSA, and […] leupeptin (0.025 mg/mL trypsin inhibitor in the case of trypsin) was added thereto to stop the enzyme reaction, and the obtained solution then allowed to pass through a cell strainer twice to remove large tissue fragments.
The sample after removal was subjected to centrifugation treatment, and this was washed once to obtain an olfactory epithelium-derived cell solution.
(§1) The olfactory epithelium-derived cells were stimulated as follows.
The olfactory epithelium-derived cells were stimulated by an odor molecule, 2-pentanone (30 mM) for 10 seconds and 2-pentanone (3 mM) for 10 seconds under the above conditions, and olfactory sensory neurons included in olfactory epithelium-derived cells were then identified by a high K^+ ringer solution. As a result, approximately 100 of approximately 10000 olfactory sensory neurons reacted with 2-pentanone. […]

Olfr168 [2] = target: T1, Olfr168 (Mus musculus, UniProt A0PK36); assay: Reconstruction experiment: cAMP-responsive luciferase in HEK 293T cells expressing Olfr168; format: cell-based; settings: HEK 293T cells transiently expressing Olfr168, Gaolf, RTP1S, pGlosensor-22
T1 sequence (A0PK36 1-312): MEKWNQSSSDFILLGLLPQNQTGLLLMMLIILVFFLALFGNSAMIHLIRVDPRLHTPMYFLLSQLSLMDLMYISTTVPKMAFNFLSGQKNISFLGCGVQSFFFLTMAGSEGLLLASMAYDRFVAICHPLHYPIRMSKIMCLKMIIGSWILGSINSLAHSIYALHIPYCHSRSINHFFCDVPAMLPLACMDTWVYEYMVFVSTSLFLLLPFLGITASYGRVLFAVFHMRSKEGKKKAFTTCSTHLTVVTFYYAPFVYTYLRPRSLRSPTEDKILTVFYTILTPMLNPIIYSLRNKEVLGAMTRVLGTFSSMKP
Source text: (§2) In order to verify whether or not the mouse-derived olfactory receptors obtained in the above 3) and 4) surely respond to odor molecules used for screening, a system in which adenylate cyclase is activated from a olfactory receptor through heterotrimeric G protein including Gaolf to accumulate cAMP from ATP, and luciferase expression is induced in an intracellular cAMP concentration-dependent manner, was reconstructed in HEK 293 cells.
(§3) Specifically, each of mouse-derived olfactory receptor genes, Olfr168, Olfr205, Olfr45 and Olfr166, and DNA coding for the amino acid sequence shown in SEQ ID NO:9 were fused. The obtained genes were incorporated into pME18S plasmid incorporated into downstream of SRa promoter, a plasmid having a base sequence coding for the amino acid sequence shown in SEQ ID NO:2 to allow Gaolf to be expressed, a plasmid to allow Receptor-transporting protein 1S (RTP1S) having a base sequence shown in SEQ ID NO:6, which is a factor to raise the efficiency of presentation of olfactory receptors from the Golgi body to the cell surface, to be expressed, and a cAMP-responsive luciferase expressing plasmid pGlosensor-22 (Promega Corporation). The plasmids are introduced into HEK 293T cells by Lipofectamine 2000 (Life Technologies) to cause transient expression.

Olfr205 [3] = target: T2, Olfr205 (Mus musculus, UniProt B9EKD6); assay: Fluo-4 Ca2+ uptake in isolated olfactory sensory neuron HI25-18 (calculation method (A)); format: cell-based; settings: HI25-18 cells
T2 sequence (B9EKD6 1-305): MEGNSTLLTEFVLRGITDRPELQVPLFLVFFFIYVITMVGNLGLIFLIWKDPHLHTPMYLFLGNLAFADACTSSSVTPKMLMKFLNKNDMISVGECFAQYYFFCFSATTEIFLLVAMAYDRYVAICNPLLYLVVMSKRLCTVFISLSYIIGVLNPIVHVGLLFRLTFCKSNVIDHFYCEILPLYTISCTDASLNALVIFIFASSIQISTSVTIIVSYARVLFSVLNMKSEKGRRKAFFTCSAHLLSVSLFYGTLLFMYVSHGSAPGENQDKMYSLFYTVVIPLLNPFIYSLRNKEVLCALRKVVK
Protocol: as §1
(§4) As a result, Olfr168 (mOR271-1; GenBank accession number: AY317252) and Olfr205 (mOR182-11P; GenBank accession number: BC150839) were identified in HI28-03 and HI25-18 respectively.
(§5) Specifically, the above Ca^2+ ringer solution was refluxed to the slide glass which had been put on the OneCell device and had stored olfactory epithelium-derived cells, and a Ca^2+ ringer solution containing 3 mM 2-pentanone described below was added thereto for 20 seconds every two minutes. The degree of increase in transient fluorescence intensity derived from Fluo-4 in each olfactory sensory neuron was repeatedly measured 5 times (FIG. 8).

Olfr205 [4] = target: T2, Olfr205; assay: Reconstruction experiment: cAMP-responsive luciferase in HEK293 cells expressing Olfr205; format: cell-based
Source text: as §2, §3

Olfr168 [5] = target: T1, Olfr168; assay: Fluo-4 Ca2+ uptake in isolated olfactory sensory neuron HI28-03 (calculation method (A)); format: cell-based; settings: HI28-03 cells
Protocol: as §1, §4, §5

Olfr45 = Olfr45 (Mus musculus, UniProt A0JLW4); assay: cell-based
Chain of Olfr45 (A0JLW4 1-311): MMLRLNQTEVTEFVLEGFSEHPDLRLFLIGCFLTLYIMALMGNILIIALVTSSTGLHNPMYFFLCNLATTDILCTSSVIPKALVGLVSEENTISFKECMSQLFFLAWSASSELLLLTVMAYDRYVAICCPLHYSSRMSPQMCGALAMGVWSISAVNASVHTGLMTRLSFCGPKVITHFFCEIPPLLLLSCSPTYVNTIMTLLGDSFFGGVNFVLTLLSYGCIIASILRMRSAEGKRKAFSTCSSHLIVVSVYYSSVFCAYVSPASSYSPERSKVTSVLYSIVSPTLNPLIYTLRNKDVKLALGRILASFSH
Protocol: (§6) The olfactory epithelium-derived cell solution obtained above was subjected to centrifugation at 1000 rpm for 5 minutes (2420, KUBOTA Co.) to remove the supernatant, and to this, a Ca^2+ ringer solution containing […] Fluo4-AM (F312, Dojindo) and 0.02 wt % Pluronic F-127 (P6867, Molecular Probes) was then added. A polystyrene slide having about 400000 nano chambers with a diameter of […] for As OneCell Picking system (AS ONE Corporation; automated single-cell analysis and isolation system [equipped with temperature control system, time lapse system, perfusion system]; Yoshimoto, et al., Scientific Reports Vol. 3 (2013) 1191; hereinafter this can be referred to as “OneCell system” in the description) was immersed in 2% PVP (polyvinyl pyrrolidone (NACALAI TESQUE, INC.)) and then put on a perfusion jig for the OneCell system. […]
(§7) Subsequently, the slide was put on a prescribed site of the OneCell system and maintained with a Ca^2+ ringer solution having been circulated, and fluorescent images derived from Fluo-4 of each olfactory epithelium-derived cell included in the nano chambers were observed through 4×objective lens, and changes in fluorescence intensity over time were recorded. […]

Olfr166 [6] = target: T3, Olfr166 (Mus musculus, UniProt Q8VGX2); settings: HG28-24 cells, stimulation by pyridine
T3 sequence (Q8VGX2 1-312): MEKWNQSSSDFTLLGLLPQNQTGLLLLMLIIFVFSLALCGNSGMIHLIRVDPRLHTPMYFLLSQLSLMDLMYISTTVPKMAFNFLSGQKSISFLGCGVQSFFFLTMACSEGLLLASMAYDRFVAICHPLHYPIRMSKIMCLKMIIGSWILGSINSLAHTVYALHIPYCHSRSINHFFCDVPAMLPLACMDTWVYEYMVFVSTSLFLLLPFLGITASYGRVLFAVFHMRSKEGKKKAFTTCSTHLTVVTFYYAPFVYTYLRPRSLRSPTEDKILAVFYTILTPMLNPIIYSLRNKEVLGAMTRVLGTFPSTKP
Protocol: as §6, §7

Olfr166 [7] = target: T3, Olfr166; assay: cell-based
Source text: as §2, §3

[8] = tested on: human-derived olfactory receptor; assay: Human olfactory receptor-expressing cell array (404 sites, HEK293-C1/2 strain) on OneCell system; format: cell-based; settings: concentration of 10 mM
Source text: In the substrate used, hydrophilicity is increased by plasma treatment of the surface of a slide glass (Matsunami Glass Ind., Ltd.) by a plasma modifier (PM100, Yamato Scientific Co., Ltd.) It should be noted that a machine used for dot printing is a LaboJet-500 manufactured by MicroJet. […] When the array is left to stand on specific culture conditions and observed after 2 days, it is expected that added HEK293-C1/2 strain is proliferated on the sites on which the plasmid has been immobilized to form colonies. After that, the substrate having formed colonies thereon is loaded on the above OneCell system in the method shown in 2).

[9] = 3 mM 2-pentanone for 20 seconds every two minutes, measured 5 times
[10] = stimulation by 2-pentanone, experiment independently carried out 5 times, read-out: relative value of increased Fluo-4 fluorescence intensity (high K+ ringer depolarization considered 100%)

Chain of Olfr1258 (Q8VGN6 1-311): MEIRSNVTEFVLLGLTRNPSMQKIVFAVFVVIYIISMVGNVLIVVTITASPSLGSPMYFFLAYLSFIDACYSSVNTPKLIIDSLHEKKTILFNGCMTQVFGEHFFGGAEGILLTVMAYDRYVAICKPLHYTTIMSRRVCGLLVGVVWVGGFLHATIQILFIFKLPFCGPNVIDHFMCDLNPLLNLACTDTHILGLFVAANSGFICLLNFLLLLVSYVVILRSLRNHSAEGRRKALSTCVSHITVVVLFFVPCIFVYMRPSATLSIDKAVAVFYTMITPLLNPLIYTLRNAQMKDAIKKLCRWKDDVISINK

SMILES: CCC(C)=O [2-butanone]
- EC50 (Olfr1258): ~1.5 mM

SMILES: CCCC(C)=O [2-pentanone]
- number of olfactory sensory neurons that reacted with the odor molecule [1]: approximately 100
- EC50 (Olfr168 [2]): 2.1 ± 0.6 mM
- increase in transient fluorescence intensity derived from Fluo-4 (Olfr205 [3]; [9]): 38±10
- Emax (Olfr205 [3]; [10]): 67 ± 4%
- EC50 (Olfr205 [4]): ~4 mM
- increase in transient fluorescence intensity derived from Fluo-4 (Olfr168 [5]; [9]): 46±12
- Emax (Olfr168 [5]; [10]): 74 ± 3%

SMILES: c1ccncc1 [pyridine]
- increased amount of fluorescence intensity derived from Fluo-4 (Olfr45; IG04-13 cells, stimulation by pyridine): 195±70
- Emax (Olfr45; read-out: relative value of increased Fluo-4 fluorescence intensity (high K+ ringer depolarization considered 100%)): 120 ± 6%
- increased amount of fluorescence intensity derived from Fluo-4 (Olfr166 [6]): 153±47
- relative value of increased Fluo-4 fluorescence intensity (high K+ ringer depolarization considered 100%) (Olfr166 [6]; experiment independently carried out 5 times): 132±5%
- EC50 (Olfr166 [7]): ~5 mM

SMILES: COc1cc(C=O)ccc1O [vanillin]
- fluorescence intensity response of cells to the odor molecule [8]: increase in fluorescence intensity was observed in some cells
